Assays:
Type in all cases: cell-based
SMARCA4 = molecular target: T1, SMARCA4 (Homo sapiens, UniProt P51532); assay: SMARCA4 Western blot degradation in MV4-11 cells; conditions: for Dmax: MV4-11, MV4-11 cells, read-out: SMARCA4 MSD MV411 degradation 24 h: average Dmax %; for Dmax / DC50: 24 h; for DC50 / SMARCA4 MSD MV411 degradation 24 h: average Dmax %: MV4-11 cells; for DC50: read-out: SMARCA4 MSD MV411 degradation 24 h: Mean external-Abs DC50
T1 construct: SMARCA2/SMARCA4 protein degradation selectivity in MV4-11 cells; endogenous in cells; host or cells: MV4-11
Method in brief: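 24 h compound exposure, MV4-11; RIPA lysates → SDS-PAGE → NC membrane; anti-SMARCA2/BRM, anti-BRG1, β-actin loading control; LI-COR fluorescence read. DC50 and Dmax at 24 h reported as letter bins.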

SMARCA2 [1] = molecular target: T2, SMARCA2 (Homo sapiens, UniProt P51531); assay: SMARCA2 Western blot degradation in MV4-11 cells; parameters: SMARCA2/SMARCA4 protein degradation selectivity in MV4-11 cells; endogenous in cells; host or cells: MV4-11; conditions: for Dmax: MV4-11, MV4-11 cells, read-out: SMARCA2 MSD MV411 degradation 24 h: average Dmax %; for Dmax / DC50 / SMARCA2 MSD MV411 degradation 24 h: average Dmax %: 24 h; for DC50 / Selectivity in MV411 / SMARCA2 MSD MV411 degradation 24 h: average Dmax %: MV4-11 cells; for DC50: read-out: SMARCA2 MSD MV411 degradation 24 h: Mean external-Abs DC50; for Selectivity in MV411: SMARCA2/4 selectivity
SMARCA2 [2] = molecular target: T2, SMARCA2; assay: MSD SMARCA2 degradation in A549 cell line; conditions: for Dmax: A549, A549 cells; for Dmax / DC50: 24 h; for DC50 / SMARCA2 MSD A549 degradation 24 h: Average Dmax %: A549 cells; for DC50: read-out: SMARCA2 MSD A549 degradation 24 h: Average external-Abs DC50
Method in brief: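 A549 cells treated 24 h with compound, 3-fold series from 1000 nM. Lysates captured on MSD plates and SMARCA2 quantified with anti-SMARCA2 and SULFO-TAG secondary antibodies (electrochemiluminescence). DC50 and Dmax (% degradation at 24 h) reported as letter bins.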

T2 sequence (P51531 whole entry): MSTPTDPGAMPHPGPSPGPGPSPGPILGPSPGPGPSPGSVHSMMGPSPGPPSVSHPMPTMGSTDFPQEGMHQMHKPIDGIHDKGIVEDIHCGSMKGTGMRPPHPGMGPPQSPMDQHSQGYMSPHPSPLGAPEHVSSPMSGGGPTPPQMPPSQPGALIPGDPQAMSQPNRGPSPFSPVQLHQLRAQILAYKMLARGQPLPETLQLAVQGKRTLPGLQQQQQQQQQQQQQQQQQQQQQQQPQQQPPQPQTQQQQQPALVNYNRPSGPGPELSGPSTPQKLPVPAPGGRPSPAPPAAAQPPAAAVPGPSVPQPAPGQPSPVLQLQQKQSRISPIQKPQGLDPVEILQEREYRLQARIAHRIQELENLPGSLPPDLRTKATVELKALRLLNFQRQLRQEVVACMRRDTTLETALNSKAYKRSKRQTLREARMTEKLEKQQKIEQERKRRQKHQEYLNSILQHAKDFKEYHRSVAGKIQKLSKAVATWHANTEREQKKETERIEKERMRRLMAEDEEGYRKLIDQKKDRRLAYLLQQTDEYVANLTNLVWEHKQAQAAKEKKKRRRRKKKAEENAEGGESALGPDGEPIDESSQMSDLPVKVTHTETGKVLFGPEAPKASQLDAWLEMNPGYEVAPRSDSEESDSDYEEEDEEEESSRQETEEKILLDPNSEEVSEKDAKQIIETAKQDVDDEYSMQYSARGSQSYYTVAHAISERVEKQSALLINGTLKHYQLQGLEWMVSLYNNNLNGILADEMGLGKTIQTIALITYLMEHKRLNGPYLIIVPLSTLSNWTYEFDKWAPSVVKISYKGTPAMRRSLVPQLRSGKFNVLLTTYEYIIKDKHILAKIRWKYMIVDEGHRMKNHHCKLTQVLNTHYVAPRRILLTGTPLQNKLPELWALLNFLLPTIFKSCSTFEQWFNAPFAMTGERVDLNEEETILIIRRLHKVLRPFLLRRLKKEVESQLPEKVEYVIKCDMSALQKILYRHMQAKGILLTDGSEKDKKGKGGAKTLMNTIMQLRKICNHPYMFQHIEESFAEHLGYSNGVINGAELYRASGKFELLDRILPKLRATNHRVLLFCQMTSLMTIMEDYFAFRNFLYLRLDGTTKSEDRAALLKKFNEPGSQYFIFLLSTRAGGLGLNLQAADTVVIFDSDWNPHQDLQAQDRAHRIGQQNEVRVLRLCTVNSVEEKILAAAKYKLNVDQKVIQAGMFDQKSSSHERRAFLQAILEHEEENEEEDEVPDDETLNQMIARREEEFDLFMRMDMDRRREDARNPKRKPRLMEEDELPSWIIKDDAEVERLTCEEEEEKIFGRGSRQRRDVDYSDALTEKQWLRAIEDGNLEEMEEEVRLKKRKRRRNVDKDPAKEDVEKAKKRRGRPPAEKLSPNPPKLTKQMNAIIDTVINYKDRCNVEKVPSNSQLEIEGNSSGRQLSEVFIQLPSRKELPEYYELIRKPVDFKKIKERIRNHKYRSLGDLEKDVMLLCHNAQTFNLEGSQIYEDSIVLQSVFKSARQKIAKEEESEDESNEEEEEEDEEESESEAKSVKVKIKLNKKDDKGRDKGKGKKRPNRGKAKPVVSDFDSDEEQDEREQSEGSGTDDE
T1 sequence (P51532 whole entry): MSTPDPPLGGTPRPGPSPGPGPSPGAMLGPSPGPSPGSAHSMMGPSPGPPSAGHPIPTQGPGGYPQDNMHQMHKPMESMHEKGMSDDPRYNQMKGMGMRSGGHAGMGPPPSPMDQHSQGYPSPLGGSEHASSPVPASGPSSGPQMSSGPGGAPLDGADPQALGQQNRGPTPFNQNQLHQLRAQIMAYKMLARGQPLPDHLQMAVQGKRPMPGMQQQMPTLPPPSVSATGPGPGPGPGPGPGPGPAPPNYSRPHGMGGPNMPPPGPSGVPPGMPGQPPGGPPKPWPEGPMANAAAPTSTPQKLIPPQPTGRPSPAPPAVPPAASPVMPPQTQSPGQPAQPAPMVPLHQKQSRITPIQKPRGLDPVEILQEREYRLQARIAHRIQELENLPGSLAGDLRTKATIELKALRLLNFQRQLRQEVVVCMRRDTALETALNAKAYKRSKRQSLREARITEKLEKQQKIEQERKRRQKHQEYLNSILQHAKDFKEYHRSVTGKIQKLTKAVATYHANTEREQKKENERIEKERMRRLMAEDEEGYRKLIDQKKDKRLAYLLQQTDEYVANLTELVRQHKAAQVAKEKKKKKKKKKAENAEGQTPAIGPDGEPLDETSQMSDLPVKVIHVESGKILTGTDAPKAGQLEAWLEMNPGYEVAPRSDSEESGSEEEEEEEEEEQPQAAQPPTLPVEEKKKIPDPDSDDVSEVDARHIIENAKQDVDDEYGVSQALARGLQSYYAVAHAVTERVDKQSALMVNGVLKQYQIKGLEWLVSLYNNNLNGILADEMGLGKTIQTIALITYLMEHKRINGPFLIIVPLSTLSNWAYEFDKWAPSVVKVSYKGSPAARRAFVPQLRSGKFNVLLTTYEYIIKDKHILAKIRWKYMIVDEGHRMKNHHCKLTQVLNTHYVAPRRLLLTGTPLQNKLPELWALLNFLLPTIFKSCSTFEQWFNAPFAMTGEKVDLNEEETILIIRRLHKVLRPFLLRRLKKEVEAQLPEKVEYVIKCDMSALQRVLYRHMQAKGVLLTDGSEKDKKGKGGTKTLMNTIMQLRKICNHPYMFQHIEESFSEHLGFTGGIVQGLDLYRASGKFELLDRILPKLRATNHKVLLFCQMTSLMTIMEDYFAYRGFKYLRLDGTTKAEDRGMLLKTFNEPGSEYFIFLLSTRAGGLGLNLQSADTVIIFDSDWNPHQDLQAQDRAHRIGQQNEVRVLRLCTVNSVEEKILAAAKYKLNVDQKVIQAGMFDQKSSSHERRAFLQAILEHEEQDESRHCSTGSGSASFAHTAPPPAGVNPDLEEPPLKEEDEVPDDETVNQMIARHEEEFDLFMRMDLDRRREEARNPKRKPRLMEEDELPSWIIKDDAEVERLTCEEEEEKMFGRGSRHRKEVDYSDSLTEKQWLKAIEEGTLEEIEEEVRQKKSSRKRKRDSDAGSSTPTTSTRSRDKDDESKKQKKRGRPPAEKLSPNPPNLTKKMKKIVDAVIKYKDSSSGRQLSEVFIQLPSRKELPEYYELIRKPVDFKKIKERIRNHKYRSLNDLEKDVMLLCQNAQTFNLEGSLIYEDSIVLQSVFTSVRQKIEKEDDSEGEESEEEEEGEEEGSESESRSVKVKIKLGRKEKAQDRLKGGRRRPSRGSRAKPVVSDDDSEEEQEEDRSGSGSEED

SMILES	Dmax (SMARCA4) [%]	DC50 (SMARCA4) [µM]	Dmax (SMARCA2 [1]) [%]	DC50 (SMARCA2 [1]) [µM]	Selectivity in MV411 (SMARCA2 [1])	Dmax (SMARCA2 [2]) [%]	DC50 (SMARCA2 [2]) [µM]	SMARCA4 MSD MV411 degradation 24 h: average Dmax % (SMARCA4)	SMARCA2 MSD MV411 degradation 24 h: average Dmax % (SMARCA2 [1])	SMARCA2 MSD A549 degradation 24 h: Average Dmax % (SMARCA2 [2])
C#Cc1ccc(CNC(=O)[C@@H]2C[C@@H](O)CN2C(=O)[C@@H](NC(=O)N2CC3(CC(N4CCC(c5cnc(N6CCc7[nH]c8nnc(-c9ccccc9O)cc8c7[C@@H]6C)nc5)CC4)C3)C2)C(C)(C)C)cc1 [I-228]	> 90	> 0.1	70 to 90	0.01 to 0.1	D (D (<10 fold))	> 90	> 0.1	–	–	–
C#Cc1ccc(CNC(=O)[C@@H]2C[C@@H](O)CN2C(=O)[C@@H](NC(=O)[C@H]2CC3(C2)C[C@H](N2CCN(C(=O)CN4CCN5c6cc(-c7ccccc7O)nnc6NC[C@H]5C4)CC2)C3)C(C)(C)C)cc1 (stereo partly shown) [I-240]	–	0.01 to 0.1	–	0.001 to 0.01	D (D (<10 fold))	–	> 0.1	–	–	–
C#Cc1ccc(CNC(=O)[C@@H]2C[C@@H](O)CN2C(=O)[C@@H](NC(=O)[C@H]2CC3(C2)C[C@H](N2CCC(N4CCC(N5CCN6c7cc(-c8ccccc8O)nnc7NC[C@H]6C5)CC4)CC2)C3)C(C)(C)C)c(O)c1 (stereo partly shown) [I-242]	–	0.01 to 0.1	–	0.001 to 0.01	C (C (10-100 fold))	–	0.05 to 0.1	–	–	–
C#Cc1ccc(CNC(=O)[C@@H]2C[C@@H](O)CN2C(=O)[C@@H](NC(=O)CCCCCCCN2CCC(N3CC4(CC(N5CCN6c7cc(-c8ccccc8O)nnc7NC[C@H]6C5)C4)C3)CC2)C(C)(C)C)cc1 [I-243]	< 50	> 0.1	70 to 90	0.001 to 0.01	B (B (>100-500 fold))	> 90	0.05 to 0.1	–	–	–
C#Cc1ccc([C@H](C)NC(=O)[C@@H]2C[C@@H](O)CN2C(=O)[C@@H](NC(=O)N2CC3(C2)CN(C2CCN(c4cnc(N5CCc6[nH]c7nnc(-c8ccccc8O)cc7c6[C@H]5C)nc4)CC2)C3)C(C)(C)C)cc1 [I-249]	70 to 90	> 0.1	> 90	0.01 to 0.1	C (C (10-100 fold))	> 90	0.01 to 0.05	–	–	–
C#Cc1ccc([C@H](C)NC(=O)[C@@H]2C[C@@H](O)CN2C(=O)[C@@H](NC(=O)N2CC3(CC(N4CCC(c5cnc(N6CCc7[nH]c8nnc(-c9ccccc9O)cc8c7[C@H]6C)cn5)CC4)C3)C2)C(C)(C)C)cc1 [I-250]	70 to 90	> 0.1	> 90	0.01 to 0.1	C (C (10-100 fold))	> 90	0.01 to 0.05	–	–	–
C#Cc1ccc(CNC(=O)[C@@H]2C[C@@H](O)CN2C(=O)[C@@H](NC(=O)CCCCCN2CCC(N3CC4(CC(N5CCN6c7cc(-c8ccccc8O)nnc7NC[C@H]6C5)C4)C3)CC2)C(C)(C)C)cc1 [I-251]	< 50	> 0.1	70 to 90	0.01 to 0.1	B (B (>100-500 fold))	> 90	> 0.1	–	–	–
C#Cc1ccc(CNC(=O)[C@@H]2C[C@@H](O)CN2C(=O)[C@@H](NC(=O)CN2CCC(N3CC4(CC(N5CCN6c7cc(-c8ccccc8O)nnc7NC[C@H]6C5)C4)C3)CC2)C(C)(C)C)cc1 [I-252, (2S,4R)—N-(4-ethynylbenzyl)-4-hydroxy-1-((S)-2-(2-(4-(6-((S)-2-(2-hydroxyphenyl)-6a,7,9,10-tetrahydro-5H-pyrazino[1′,2′:4,5]pyrazino[2,3-c]pyridazin-8(6H)-yl)-2-azaspiro[3.3]heptan-2-yl)piperidin-1-yl)acetamido)-3,3-dimethylbutanoyl)pyrrolidine-2-carboxamide]	> 90	0.001 to 0.01	> 90	< 0.001	D (D (<10 fold))	> 90	0.05 to 0.1	–	–	–
C#Cc1ccc(CNC(=O)[C@@H]2C[C@@H](O)CN2C(=O)[C@@H](NC(=O)N2CCN(C[C@H]3CC[C@H](N4CCC(N5CCN6c7cc(-c8ccccc8O)nnc7NC[C@H]6C5)CC4)CC3)CC2)C(C)(C)C)cc1 [I-254]	< 50	> 0.1	50 to 70	0.01 to 0.1	B (B (>100-500 fold))	70 to 90	0.05 to 0.1	–	–	–
C#Cc1ccc(CNC(=O)[C@@H]2C[C@@H](O)CN2C(=O)[C@@H](NC(=O)N2CCN(C[C@H]3CC[C@@H](N4CCC(N5CCN6c7cc(-c8ccccc8O)nnc7NC[C@H]6C5)CC4)CC3)CC2)C(C)(C)C)cc1 [I-255]	< 50	> 0.1	70 to 90	0.01 to 0.1	B (B (>100-500 fold))	70 to 90	> 0.1	–	–	–
C#Cc1ccc(CNC(=O)[C@@H]2C[C@@H](O)CN2C(=O)[C@@H](NC(=O)N2CCC[C@H](CN3CCC(N4CCC(N5CCN6c7cc(-c8ccccc8O)nnc7NC[C@H]6C5)CC4)CC3)C2)C(C)(C)C)cc1 [I-256]	< 50	> 0.1	< 50	> 0.1	D (D (<10 fold))	< 50	> 0.1	–	–	–
C#Cc1ccc(CNC(=O)[C@@H]2C[C@@H](O)CN2C(=O)[C@@H](NC(=O)[C@H]2CCC3(CC2)C[C@H](N2CCC(N4CCC(N5CCN6c7cc(-c8ccccc8O)nnc7NC[C@H]6C5)CC4)CC2)C3)C(C)(C)C)c(F)c1 (stereo partly shown) [I-258]	–	> 0.1	–	0.01 to 0.1	C (C (10-100 fold))	–	> 0.1	D (D (<50% degradation))	C (C (50-70% degradation))	B (B (>70-90% degradation))

Other lines, results leading:

Dmax (SMARCA4) [%]	DC50 (SMARCA4) [µM]	Dmax (SMARCA2 [1]) [%]	DC50 (SMARCA2 [1]) [µM]	Selectivity in MV411 (SMARCA2 [1])	Dmax (SMARCA2 [2]) [%]	DC50 (SMARCA2 [2]) [µM]	SMARCA4 MSD MV411 degradation 24 h: average Dmax % (SMARCA4)	SMARCA2 MSD MV411 degradation 24 h: average Dmax % (SMARCA2 [1])	SMARCA2 MSD A549 degradation 24 h: Average Dmax % (SMARCA2 [2])	SMILES
< 50	> 0.1	70 to 90	0.001 to 0.01	A (A (>500 fold))	> 90	< 0.01	–	–	–	C#Cc1ccc([C@H](C)NC(=O)[C@@H]2C[C@@H](O)CN2C(=O)[C@@H](NC(=O)N2CC3(CC(N4CCC(c5cnc(N6CCc7[nH]c8nnc(-c9ccccc9O)cc8c7[C@H]6C)nc5)CC4)C3)C2)C(C)(C)CCO)cc1 [I-259]
50 to 70	> 0.1	> 90	0.01 to 0.1	C (C (10-100 fold))	> 90	0.05 to 0.1	–	–	–	C#Cc1ccc(CNC(=O)[C@@H]2C[C@@H](O)CN2C(=O)[C@@H](NC(=O)[C@H]2CCC3(CC2)C[C@H](N2CCN(c4cnc(N5CCN6c7cc(-c8ccccc8O)nnc7NC[C@H]6C5)nc4)CC24CC4)C3)C(C)(C)C)cc1 (stereo partly shown) [I-266]
–	> 0.1	–	0.01 to 0.1	B (B (>100-500 fold))	–	0.05 to 0.1	D (D (<50% degradation))	B (B (>70-90% degradation))	B (B (>70-90% degradation))	C#Cc1ccc(CNC(=O)[C@@H]2C[C@@H](O)CN2C(=O)[C@@H](NC(=O)[C@H]2CCC3(CC2)C[C@H](N2CCN(c4cnc(N5CCN6c7cc(-c8ccccc8O)nnc7NC[C@H]6C5)nc4)CC24CC4)C3)C(C)(C)C)cc1 (stereo partly shown) [I-267]
50 to 70	> 0.1	70 to 90	0.01 to 0.1	C (C (10-100 fold))	> 90	> 0.1	–	–	–	C#Cc1ccc(CNC(=O)[C@@H]2C[C@@H](O)CN2C(=O)[C@@H](NC(=O)N2CC3(CC(N4CC(N5CCC(c6cnc(N7CCc8[nH]c9nnc(-c%10ccccc%10O)cc9c8[C@H]7C)nc6)CC5)C4)C3)C2)C(C)(C)C)cc1 [I-268]
50 to 70	> 0.1	70 to 90	0.01 to 0.1	C (C (10-100 fold))	> 90	0.01 to 0.05	–	–	–	C#Cc1ccc(CNC(=O)[C@@H]2C[C@@H](O)CN2C(=O)[C@@H](NC(=O)N2CCN(Cc3ccc(-c4cnc(N5CCN6c7cc(-c8ccccc8O)nnc7NC[C@H]6C5)nc4)cc3)CC2)C(C)(C)C)cc1 [I-269]
> 90	> 0.1	> 90	0.001 to 0.01	C (C (10-100 fold))	> 90	< 0.01	–	–	–	C#Cc1ccc(CNC(=O)[C@@H]2C[C@@H](O)CN2C(=O)[C@@H](NC(=O)N2CC3(CC(N4CCC(c5cnc(N6CCc7[nH]c8nnc(-c9ccccc9O)cc8c7[C@H]6C)nc5)CC4)C3)C2)C(C)(C)C)c(C)c1 [I-270]
< 50	> 0.1	70 to 90	0.01 to 0.1	C (C (10-100 fold))	> 90	0.05 to 0.1	–	–	–	CC#Cc1ccc(CNC(=O)[C@@H]2C[C@@H](O)CN2C(=O)[C@@H](NC(=O)N2CC3(CC(N4CCC(c5cnc(N6CCc7[nH]c8nnc(-c9ccccc9O)cc8c7[C@H]6C)nc5)CC4)C3)C2)C(C)(C)C)c(OC)c1 [I-271]

— patent publication US20250170248A1, “SMARCA DEGRADERS AND USES THEREOF” (Kymera Therapeutics, Inc., priority 2021, published 2025)
